Source: patent publication US20220249394A1 (priority 2019, published 2022)

Experiments:
[1] = tested on: ScNeuro 2a (ScN2a) cells producing abnormal prion protein (PrP^Sc); type: cell-based, mouse; conditions: 24 hours culture with 0-40 mM HFIP, crystal violet staining, FIG. 1
[2] = tested on: Neuro 2a (N2a) cells producing normal prion protein (PrP^C); type: cell-based, mouse; conditions: 24 hours culture with 0-40 mM HFIP, crystal violet staining, FIG. 1
[3] = target: prion protein (PrP^C) in N2a cells (Mus musculus, UniProt P04925); type: cell-based; conditions: 6 mM HFIP for 24 hours, protease K 10 μg/ml 37° C. 30 minutes, Western blotting, FIG. 2 #1 to #4
Chain of prion protein (PrP^C) in N2a cells (P04925 23-230 limits assumed): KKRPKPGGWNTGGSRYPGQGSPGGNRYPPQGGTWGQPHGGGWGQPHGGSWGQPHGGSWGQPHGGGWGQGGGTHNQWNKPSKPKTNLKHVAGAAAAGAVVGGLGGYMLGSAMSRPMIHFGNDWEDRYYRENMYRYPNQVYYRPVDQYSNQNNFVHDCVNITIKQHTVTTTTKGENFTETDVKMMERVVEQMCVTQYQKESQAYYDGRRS

Structure (SMILES): OC(C(F)(F)F)C(F)(F)F [HFIP, 1,1,1,3,3,3-hexafluoro-2-propanol]
- upper concentration limit at which ScN2a cells can survive [1]: 20 mM
- upper concentration limit of HFIP at which N2a cells can survive [2]: 25 mM
- degradation of protein by protease K [3]: degraded by protease K with or without the addition of HFIP
